According to publication PMC5755953, “Identification of Allosteric Modulators of Metabotropic Glutamate 7 Receptor Using Proteochemometric Modeling” (Journal of Chemical Information and Modeling, 2017):

How the values were obtained:
mGlu7 [1] = test system: mGlu7; design: method as in PMID 17609420; conditions: known reference compound, allosteric antagonist/NAM; cited from earlier work
mGlu7 receptor = target: T1, mGlu7 receptor (Homo sapiens, UniProt Q14831); assay: mGlu7 PAM assay (Ca2+ response, concentration response); format: cell-based; conditions: confirmed hits of virtual screening; for EC50: concentration response, read-out: mGlu7 PAM pEC50 (converted)
T1 construct: expressed in transfected cells; host or cells: HEK 293 cells

mGlu1 to mGlu8 receptor = assay: mGlu receptor panel selectivity assays (activation or inactivation); format: cell-based; conditions: up to concentration cutoffs of 10 μM
Description: Active hits from the VS were sourced from the Janssen corporate compound collection, no new synthesis was performed at this time, and batch purity information is provided in the Supporting Information (Table S5). The selectivity of the hits 1 to 4 was assessed by in vitro screening in the same panel of mGlu1 to mGlu8 receptor activation or inactivation assays.
(§1) Method for selectivity assays mGlu receptor panel selectivity assays: Ca2+ assays with human mGlu1, 3, 5, 7, or 8 receptor expressing HEK 293 cells were performed as reported in Lavreysen et al. (2013), except for a slight change in the procedure for mGlu5: cells expressing the human mGlu5 receptor were seeded at 40,000 cells/well in MW384. TwentyEfour hours after seeding, cells were incubated for 90 min in Ca2+ assay kit (Molecular Devices) dissolved in saline PBS supplemented with 5 mmol/L probenecid, pH 7.4 (f.c. 2.5 mmol/L probenecid as loading buffer was added on the cell layer without removal of medium) before measurements. Measurement of [35S]GTPγS binding to membranes from CHO cells expressing the rat mGlu6 receptor and membranes from L929sA cells expressing the human mGlu4 receptor were conducted also as described in Lavreysen et al.
(§2) Lavreysen H, et al. Pharmacological Characterization of JNJE40068782, a New Potent, Selective, and Systemically Active Positive Allosteric Modulator of the mGlu2 Receptor and Its

mGlu4 = target: T2, mGlu4 (Homo sapiens, UniProt Q14833); assay: mGlu4 agonism assay ([35S]GTPγS binding to membranes); format: biochemical; conditions: selectivity panel; read-out: pEC50 in mGlu4 agonism assay (converted)
T2 construct: expressed in transfected cells; host or cells: L929sA cells (membranes)
Description: as §1, §2

mGlu7 [2] = test system: mGlu7; design: method as in PMID 16339898; conditions: known reference compound, agonist/PAM; cited from earlier work

T1 sequence (Q14831 35-915): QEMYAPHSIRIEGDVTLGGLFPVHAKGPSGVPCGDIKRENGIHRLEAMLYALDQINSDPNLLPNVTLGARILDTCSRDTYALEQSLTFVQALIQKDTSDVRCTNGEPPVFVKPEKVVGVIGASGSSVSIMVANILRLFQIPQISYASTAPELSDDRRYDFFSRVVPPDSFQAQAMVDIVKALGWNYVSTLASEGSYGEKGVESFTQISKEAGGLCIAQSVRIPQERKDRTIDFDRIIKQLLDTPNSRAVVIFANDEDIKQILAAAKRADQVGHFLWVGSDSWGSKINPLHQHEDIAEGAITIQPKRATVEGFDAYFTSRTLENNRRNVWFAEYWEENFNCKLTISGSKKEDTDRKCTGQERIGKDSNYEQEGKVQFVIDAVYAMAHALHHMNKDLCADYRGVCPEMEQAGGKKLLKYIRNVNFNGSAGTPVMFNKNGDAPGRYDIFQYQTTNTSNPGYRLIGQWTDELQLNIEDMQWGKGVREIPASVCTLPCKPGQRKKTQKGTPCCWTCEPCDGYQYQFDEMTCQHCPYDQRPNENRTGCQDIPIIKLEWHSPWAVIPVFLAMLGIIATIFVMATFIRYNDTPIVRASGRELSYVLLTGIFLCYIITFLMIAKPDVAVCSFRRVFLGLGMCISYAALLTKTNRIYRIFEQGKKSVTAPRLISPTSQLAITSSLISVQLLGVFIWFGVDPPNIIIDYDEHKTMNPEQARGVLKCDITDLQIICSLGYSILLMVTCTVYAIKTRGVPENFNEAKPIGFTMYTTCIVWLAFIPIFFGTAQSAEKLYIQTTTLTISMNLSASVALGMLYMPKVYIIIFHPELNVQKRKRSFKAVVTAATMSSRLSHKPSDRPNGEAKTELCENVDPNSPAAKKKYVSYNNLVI
T2 sequence (Q14833 33-912): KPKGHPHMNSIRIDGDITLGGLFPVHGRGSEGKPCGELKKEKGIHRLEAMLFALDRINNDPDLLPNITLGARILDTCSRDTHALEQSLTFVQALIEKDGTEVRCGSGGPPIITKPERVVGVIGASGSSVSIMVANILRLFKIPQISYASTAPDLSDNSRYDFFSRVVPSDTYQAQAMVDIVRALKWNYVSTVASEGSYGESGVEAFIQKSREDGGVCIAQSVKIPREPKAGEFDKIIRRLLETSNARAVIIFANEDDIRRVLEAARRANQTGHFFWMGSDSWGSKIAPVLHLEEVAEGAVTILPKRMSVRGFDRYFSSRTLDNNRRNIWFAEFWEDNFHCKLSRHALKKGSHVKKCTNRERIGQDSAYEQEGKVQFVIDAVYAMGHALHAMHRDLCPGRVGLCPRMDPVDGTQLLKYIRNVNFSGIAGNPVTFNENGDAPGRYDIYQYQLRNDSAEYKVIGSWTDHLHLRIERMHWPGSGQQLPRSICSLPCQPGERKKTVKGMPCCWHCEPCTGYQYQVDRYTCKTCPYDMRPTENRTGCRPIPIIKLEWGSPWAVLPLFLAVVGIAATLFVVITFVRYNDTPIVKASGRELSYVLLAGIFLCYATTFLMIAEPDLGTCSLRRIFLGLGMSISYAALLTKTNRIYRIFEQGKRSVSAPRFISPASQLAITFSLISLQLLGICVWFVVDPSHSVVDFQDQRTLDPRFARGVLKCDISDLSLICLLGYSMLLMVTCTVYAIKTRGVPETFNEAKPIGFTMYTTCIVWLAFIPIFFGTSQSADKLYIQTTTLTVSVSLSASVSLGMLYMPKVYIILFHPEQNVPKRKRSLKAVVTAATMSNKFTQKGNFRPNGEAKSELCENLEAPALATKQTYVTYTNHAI

For `COc1ccc(-c2cc3onc(-c4ccncc4)c3c(=O)n2C)cc1` [MMPIP], the “mGlu7-ant pIC50” value (mGlu7 [1]) is listed as 7.
For `CC(C)(C)OC(=O)N1CCc2ccc(-n3cc(-c4ccncc4)cn3)cc2CC1` [compound 4], the Emax (mGlu7 receptor) was 57%, the EC50 (mGlu7 receptor) was 31.6 µM and the “activity in panel of mGlu1 to mGlu8 receptor activation or inactivation assays” value (“activity in panel of mGlu1” for short) (mGlu1 to mGlu8 receptor) was “No activity”.
For `COc1c(F)cccc1COc1ccc(C(=O)N[C@H](C)C(C)(C)C)cn1` [compound 2], the Emax (mGlu7 receptor) was 103%, the EC50 (mGlu7 receptor) was 12.6 µM and the “activity in panel of mGlu1” value (mGlu1 to mGlu8 receptor) was “No activity”.
Work on `CNC(=O)N1CCCC(CN2CCC(OC(c3ccccc3)c3ccccc3)CC2)C1` (stereo not shown) [compound 3] yielded an EC50 (mGlu4) of 0.631 µM.
For `CC1CCN(c2nc(-c3ccncc3)nc3cnccc23)CC1` [compound 6], the Emax (mGlu7 receptor) was 65% and the EC50 (mGlu7 receptor) was > 30.2 µM.
In the case of `COc1cc(F)cc(COc2ccc(C(=O)N[C@H](C)C(C)(C)C)cn2)c1` [compound 1], the Emax (mGlu7 receptor) was 86%, the EC50 (mGlu7 receptor) was 12.6 µM and the “activity in panel of mGlu1” value (mGlu1 to mGlu8 receptor) was “No activity”.
For `c1ccc(C(NCCNC(c2ccccc2)c2ccccc2)c2ccccc2)cc1` [AMN-082], the “PAM activity reported in cAMP and Ca2+ assays” value (mGlu7 [2]) is listed as “Active PAM reported in cAMP but not Ca2+ assays”.
`COc1ccc(CN2CCc3c(nc(N4CCC(C)CC4)[nH]c3=O)C2)cc1` [compound 5] showed an Emax (mGlu7 receptor) of 99% and an EC50 (mGlu7 receptor) of 15.8 µM.
